Data from the supplement of paper PMC11451515.

How the values were obtained:
Conditions in all cases: 48 h
[1] = tested on: SEM cells; test: cell viability relative to DMSO control; higher = less cytotoxic
Procedure, shortened: (§1)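 Viability is a per-plate percentage relative to DMSO wells, with cell-free wells as background. CellTiter-Glo One luminescence was read after 48 h at 37°C on 1536-well plates (5 μl) of NOMO1 or SEM (500 cells/well) or P12-Ichikawa (1000 cells/well) leukemia cells. The cells had been adapted for at least four passages in each medium and pin-dosed with library compounds in DMSO from 47 μM to 0.79 nM in 11 threefold steps.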

[2] = tested on: NOMO1; test: AUC of viability dose-response curve (% viability x log10 dose units); higher = less sensitive
Procedure, shortened: (§2)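 In 1536-well plates, leukemia cells adapted to each medium (500 or 1000 cells/well) were exposed for 48 h at 37°C to library compounds in DMSO across 11 threefold doses, 47 μM down to 0.79 nM. Viability was read by CellTiter-Glo One luminescence and normalised per plate to DMSO and cell-free wells. A four-parameter log-logistic fit over log10 doses was integrated by trapezoidal rule. This yielded the area under the curve, with over-full-viability curves scaled and quality-control failures dropped.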

[3] = tested on: P12-Ichikawa; test: as above
Procedure, shortened: as §2

[4] = tested on: SEM cells; test: as above
Procedure, shortened: as §2

[5] = tested on: NOMO1; test: cell viability relative to DMSO control; higher = less cytotoxic
Procedure, shortened: as §1

[6] = tested on: P12-Ichikawa; test: as above
Procedure, shortened: as §1

Cc1cc(Nc2cc(NC(=O)c3c(Cl)cccc3Cl)ccn2)nc(N)n1
[1], HPLM + 10% dialyzed FBS
Conditions | cell viability [%]
0.000781 µM | 112
0.00234 µM | 123
0.00702 µM | 126
0.0211 µM | 124
0.0632 µM | 128
0.19 µM | 128
0.569 µM | 113
1.71 µM | 61.3
5.12 µM | 40.9
15.4 µM | 37.9
46.1 µM | 40.2

AUC of viability dose-response curve
Conditions | [2] | [3] | [4]
HPLM + 10% dialyzed FBS | 373 | 364 | 368
RPMI 5 mM glucose + 10% FBS | 391 | 364 | 391
RPMI 5 mM glucose + 10% dialyzed FBS | 359 | 346 | 341

COc1ccc(-c2ccc3c(N4CCOCC4)nc(N4C[C@@H](C)O[C@@H](C)C4)nc3n2)cc1CO
AUC of viability dose-response curve
Conditions | [2] | [3] | [4]
HPLM + 10% dialyzed FBS | 304 | 336 | 343
RPMI 5 mM glucose + 10% FBS | 372 | 301 | 342
RPMI 5 mM glucose + 10% dialyzed FBS | 353 | 326 | 356

OC[C@H]1O[C@@H](OCCc2ccc(O)cc2)[C@H](O)[C@@H](O)[C@@H]1O
AUC of viability dose-response curve
Conditions | [2] | [3] | [4]
HPLM + 10% dialyzed FBS | 459 | 435 | 447
RPMI 5 mM glucose + 10% FBS | 458 | 456 | 432
RPMI 5 mM glucose + 10% dialyzed FBS | 464 | 461 | 419

COc1ccc2cc([C@H](C)C(=O)O)ccc2c1
AUC of viability dose-response curve
Conditions | [2] | [3] | [4]
HPLM + 10% dialyzed FBS | 465 | 448 | 412
RPMI 5 mM glucose + 10% FBS | 476 | 469 | 401
RPMI 5 mM glucose + 10% dialyzed FBS | 460 | 464 | 410

NC(=O)c1cccnc1
AUC of viability dose-response curve
Conditions | [2] | [3] | [4]
HPLM + 10% dialyzed FBS | 438 | 451 | 448
RPMI 5 mM glucose + 10% FBS | 464 | 466 | 449
RPMI 5 mM glucose + 10% dialyzed FBS | 409 | 466 | 457

O=C1NC(=O)/C(=C\c2ccc(-c3ccc(F)cc3)o2)S1
AUC of viability dose-response curve
Conditions | [2] | [3] | [4]
HPLM + 10% dialyzed FBS | 415 | 436 | 455
RPMI 5 mM glucose + 10% FBS | 462 | 445 | 462
RPMI 5 mM glucose + 10% dialyzed FBS | 444 | 455 | 457

C[C@H](CCC(=O)O)[C@H]1CC[C@H]2[C@@H]3[C@@H](O)C[C@@H]4C[C@H](O)CC[C@]4(C)[C@H]3CC[C@]12C
AUC of viability dose-response curve
Conditions | [2] | [3] | [4]
HPLM + 10% dialyzed FBS | 401 | 445 | 441
RPMI 5 mM glucose + 10% FBS | 414 | 461 | 462
RPMI 5 mM glucose + 10% dialyzed FBS | 398 | 435 | 449

C1=C/COCc2cc(ccc2OCCN2CCCC2)Nc2nccc(n2)-c2cccc(c2)OCC/1
[5], HPLM + 10% dialyzed FBS
Conditions | cell viability [%]
0.000781 µM | 20.8
0.00234 µM | 84.8
0.00702 µM | 123
0.0211 µM | 133
0.0632 µM | 161
0.19 µM | 130
0.569 µM | 124
1.71 µM | 94.7
5.12 µM | 63.2
15.4 µM | 7.96
46.1 µM | 5.7

AUC of viability dose-response curve
Conditions | HPLM + 10% dialyzed FBS | RPMI 5 mM glucose + 10% FBS | RPMI 5 mM glucose + 10% dialyzed FBS
[3] | 409 | 415 | 406
[4] | 354 | 369 | 350

CNC(=O)c1c(-c2ccc(F)cc2)oc2cc(N(CCO)[S+](C)(=O)[O-])c(C3CC3)cc12
cell viability [%], [1]
Conditions | HPLM + 10% dialyzed FBS | RPMI 5 mM glucose + 10% FBS | RPMI 5 mM glucose + 10% dialyzed FBS
0.000781 µM | 82.4 | 44.5 | 75.4
0.00234 µM | 117 | 71.1 | 111
0.00702 µM | 117 | 77.3 | 118
0.0211 µM | 110 | 69.1 | 106
0.0632 µM | 71.9 | 41.9 | 65.2
0.19 µM | 51.8 | 26.8 | 46.8
0.569 µM | 67.2 | 39.9 | 59.4
1.71 µM | 51.2 | 31.5 | 48
5.12 µM | 25.4 | 23.8 | 24.4
15.4 µM | 14.3 | 5.58 | 10.2
46.1 µM | 3.38 | 1.22 | 1

AUC of viability dose-response curve
Conditions | HPLM + 10% dialyzed FBS | RPMI 5 mM glucose + 10% FBS | RPMI 5 mM glucose + 10% dialyzed FBS
[2] | 395 | 412 | 425
[3] | 382 | 407 | 404

N#CCNC(=O)c1ccc(-c2ccnc(Nc3ccc(N4CCOCC4)cc3)n2)cc1
cell viability [%]
Conditions | [1] | [5] | [6]
HPLM + 10% dialyzed FBS, 0.000781 µM | – | 109 | 98.6
HPLM + 10% dialyzed FBS, 0.00234 µM | – | 115 | 108
HPLM + 10% dialyzed FBS, 0.00702 µM | – | 116 | 118
HPLM + 10% dialyzed FBS, 0.0211 µM | – | 134 | 114
HPLM + 10% dialyzed FBS, 0.0632 µM | – | 128 | 110
HPLM + 10% dialyzed FBS, 0.19 µM | – | 117 | 110
HPLM + 10% dialyzed FBS, 0.569 µM | – | 115 | 98.8
HPLM + 10% dialyzed FBS, 1.71 µM | – | 105 | 111
HPLM + 10% dialyzed FBS, 5.12 µM | – | 124 | 111
HPLM + 10% dialyzed FBS, 15.4 µM | – | 87.3 | 77.6
HPLM + 10% dialyzed FBS, 46.1 µM | – | 8.36 | 34
RPMI 5 mM glucose + 10% FBS, 0.000781 µM | 98.5 | 88.7 | 97.9
RPMI 5 mM glucose + 10% FBS, 0.00234 µM | 107 | 116 | 102
RPMI 5 mM glucose + 10% FBS, 0.00702 µM | 122 | 101 | 120
RPMI 5 mM glucose + 10% FBS, 0.0211 µM | 108 | 113 | 115
RPMI 5 mM glucose + 10% FBS, 0.0632 µM | 126 | 107 | 111
RPMI 5 mM glucose + 10% FBS, 0.19 µM | 116 | 106 | 109
RPMI 5 mM glucose + 10% FBS, 0.569 µM | 103 | 106 | 95.6
RPMI 5 mM glucose + 10% FBS, 1.71 µM | 107 | 89.5 | 108
RPMI 5 mM glucose + 10% FBS, 5.12 µM | 87 | 102 | 102
RPMI 5 mM glucose + 10% FBS, 15.4 µM | 37.9 | 86 | 65.6
RPMI 5 mM glucose + 10% FBS, 46.1 µM | 13.1 | 11.3 | 34
RPMI 5 mM glucose + 10% dialyzed FBS, 0.000781 µM | 91.3 | 48.6 | 115
RPMI 5 mM glucose + 10% dialyzed FBS, 0.00234 µM | 107 | 105 | 103
RPMI 5 mM glucose + 10% dialyzed FBS, 0.00702 µM | 105 | 129 | 109
RPMI 5 mM glucose + 10% dialyzed FBS, 0.0211 µM | 115 | 113 | 113
RPMI 5 mM glucose + 10% dialyzed FBS, 0.0632 µM | 120 | 120 | 109
RPMI 5 mM glucose + 10% dialyzed FBS, 0.19 µM | 101 | 110 | 109
RPMI 5 mM glucose + 10% dialyzed FBS, 0.569 µM | 91.5 | 99.7 | 99.5
RPMI 5 mM glucose + 10% dialyzed FBS, 1.71 µM | 88.5 | 90.8 | 98.2
RPMI 5 mM glucose + 10% dialyzed FBS, 5.12 µM | 65.1 | 114 | 97.6
RPMI 5 mM glucose + 10% dialyzed FBS, 15.4 µM | 37.2 | 85.6 | 70.8
RPMI 5 mM glucose + 10% dialyzed FBS, 46.1 µM | 21.6 | 10.8 | 25.3

AUC of viability dose-response curve
Conditions | HPLM + 10% dialyzed FBS | RPMI 5 mM glucose + 10% FBS | RPMI 5 mM glucose + 10% dialyzed FBS
[3] | 447 | 442 | 434
[4] | 405 | 412 | 394

OC[C@H]1O[C@@H](O[C@@H]2O\C=C(/[C@H]3C\C=C(CO)/[C@@H]23)C(O)=O)[C@H](O)[C@@H](O)[C@@H]1O
AUC of viability dose-response curve
Conditions | [2] | [3] | [4]
HPLM + 10% dialyzed FBS | 453 | 449 | 452
RPMI 5 mM glucose + 10% FBS | 449 | 468 | 475
RPMI 5 mM glucose + 10% dialyzed FBS | 455 | 418 | 462

CC(C)(CO)[C@@H](O)C(=O)NCCC(=O)O
AUC of viability dose-response curve
Conditions | [2] | [3] | [4]
HPLM + 10% dialyzed FBS | 440 | 466 | 469
RPMI 5 mM glucose + 10% FBS | 470 | 471 | 471
RPMI 5 mM glucose + 10% dialyzed FBS | 461 | 463 | 465
